# Tests used:
# Assay type in all cases: cell-based, human
# [1] = tested on: MDA-MB-231 cells; assay: Transwell invasion assay; conditions: 100 nM, 24 hours
# Experimental: On the first day, 0.2× Basement Membrane Extract (BME) working solution was prepared by diluting 5×BME stock solution in 1× Travigen Inc. coating buffer. Briefly, 100 μL of 10× coating buffer was diluted in 900 μL of sterile water to make 1× coating buffer. Then 960 μL of 1× coating buffer was mixed with 40 μL of 5×BME to make working 0.2×BME solution. Corning Transwell permeable inserts (Costar Transwell chambers, Corning) were placed on a 24-well plate and 100 μL of 0.2×BME solution was added to each Transwell insert and incubated for 16 hours. Following day, MDA-MB-231 cells were trypsinized and cells were suspended in serum free medium. Approximately 100 μL from cell suspension (˜3×10^5 cells) was added to each Transwell insert followed by another 100 μL of exemplary compound or control containing serum free RPMI medium. The lower chamber was filled with 10% FBS containing RPMI medium and the whole setup was incubated at 37° C. 1-5% CO2 for 24 hours. After 24 hours, cell culture medium was removed from both lower and upper chambers and Transwell inserts were washed three times with PBS. […] Images were then analyzed by ImageJ software and number of cells on the bottom side of the membrane were counted and presented as a bar graph using Prism 7.0 (GraphPad). Differences among groups were analyzed by Welch's t-test and considered significant when P<0.05. […]
# [2] = tested on: MDA-MB-231 cells; assay: Cell proliferation assay (MTS); conditions: 96 hours
# Experimental: (§1) Cells were seeded in 96-well plates and treated with exemplary compound or control as indicated. At desired time points culture medium was supplemented with […] MTS (Promega) and […] phenazine methosulfate (Sigma) and incubated at 37° C. Mitochondrial reduction of MTS to the formazan derivative was monitored by measuring the medium's absorbance at 490 nm using a Wallac Victor 2 plate reader (Perkin-Elmer Life Sciences). Data analysis and statistics was performed using Prism 7.0 (GraphPad).
# [3] = tested on: PC3 cells; assay: Cell proliferation assay (MTS); conditions: 96 h
# Experimental: as §1
# [4] = tested on: p-Akt (S473); assay: Fak downstream signaling, western blot in PC3 cells; conditions: serum deprived PC3 cells, 24 h
# Experimental: (§2) If not indicated otherwise, cells were seeded and grown to 80% confluency and were treated with compound or control for 24 hours. Subsequently, the growth media was removed and the cells lysed by the addition of lysis buffer (25 mM Tris, pH 7.4; 1% NP-40, 0.25% deoxycholate, 1 mM sodium vanadate, 10 mM sodium fluoride, 10 mM sodium pyrophosphate, 20 mM β-glycerophosphate and 1× complete EDTA-free protease inhibitor cocktail (Roche)). After 20 minutes the mixture was spun down at 16,000×g for 10 minutes at 4° C. to pellet insoluble materials. Protein concentration of supernatants were determined via BCA assay (Thermo Fisher) before addition of NuPAGE sample buffer containing 5% β-Me and boiling at 95° C. for 10 minutes. Equal amounts of protein were subjected to SDS-PAGE and subsequent electrophoretic transfer onto nitrocellulose membrane. Rabbit antibodies were purchased from Cell Signaling: Fak (3285), p-Fak (3283), p-Paxillin (2541), p-Akt (S473)(4060), GAPDH (2118), Androgen Receptor (5153), p-Src(Y527)(2105), p-S6RP (2215). Mouse antibodies were purchased from Cell Signaling: tubulin (3873), S6RP (2317). Secondary antibody ∝-rabbit (31460) or ∝-mouse (31444) was coupled to horseradish peroxidase and purchased from Thermo Fisher. Immunoblots were developed using enhanced chemiluminescence and visualized using a Bio-Rad Chemi-Doc MP Imaging System and quantitated with Image Lab v.5.2.1 software (Bio-Rad Laboratories). Data analysis and statistics was performed using Prism 7.0 (GraphPad).
# (§3) Fak levels are undetectable at concentrations of 100 nM through 1 μM of exemplary compound 102, and slightly rebound at concentrations of 5 μM (10%) and 10 μM (27%) due to an observed hook effect. […] Paxillin, a downstream target of the Fak-Src complex, has been associated with cell migration. […] Akt is a kinase that is tied to the Fak signaling cascade via PI3K, but can be activated through other pathways as well. […] A maximum p-Akt suppression of 93% is observed at 1 μM of exemplary compound 102. […] A similar differential can be observed when exemplary compound 102 is compared to its non-degrading diastereomer exemplary compound 106 (FIGS. 9A-9F and 10A-10D). These differences are the result of the distinct MOA Fak degraders are able to provide compared to inhibitors.
# [5] = tested on: p-paxillin; assay: as above; conditions: serum deprived PC3 cells, 24 h
# Experimental: as §2, §3
# [6] = tested on: S6RP; assay: Western blot of S6RP total levels in MDA-MB-231 cells; conditions: 10% FBS, varying concentrations
# Experimental: as §2, with “Secondary antibody ∝-rabbit (31460) or ∝-mouse (31444) was coupled to horseradish peroxidase and purchased from Thermo Fisher.” left out, “Data analysis and statistics was performed using Prism 7.0 (GraphPad).” left out
SMILES,reduction of cell invasion [1] [%],cell viability or proliferation (in words) [2],cell viability or proliferation (in words) [3],maximum p-Akt suppression ([4]; 1 μM) [%],effect on p-Akt (S473) (in words) ([4]; increasing concentrations),reduction of p-paxillin levels ([5]; above 50 nM),total S6RP levels (in words) [6],effect on cell invasion (in words) [1],maximum reduction of p-Akt ([4]; 10 μM) [%],maximum reduction of p-paxillin levels ([5]; 10 μM) [%]
"Cc1ncsc1-c1ccc(CNC(=O)[C@@H]2C[C@@H](O)CN2C(=O)[C@@H](NC(=O)CCOCCOc2ccc(Nc3ncc(C(F)(F)F)c(NCc4cccc(N(C)S(C)(=O)=O)c4)n3)cc2)C(C)(C)C)cc1 [Compound 102, (2S,4R)-1-((S)-3,3-dimethyl-2-(3-(2-(4-((4-((3-(N-methylmethylsulfonamido)benzyl)amino)-5-(trifluoromethyl)pyrimidin-2-yl)amino)phenoxy)ethoxy)propanamido)butanoyl)-4-hydroxy-N-(4-(4-methylthiazol-5-yl)benzyl)pyrrolidine-2-carboxamide]",65,do not affect cell viability or proliferation within four days,do not affect cell viability or proliferation within four days,93,significant at all treatment concentrations,85-90%,unchanged,,,
"CNC(=O)c1ccc(Nc2ncc(C(F)(F)F)c(NCc3nccnc3N(C)S(C)(=O)=O)n2)cc1 [Defactinib, defactinib, reference compound]",,,,,,,,no significant effect,88,62
